Experimental data as given in the C3SDB collision cross section collection.

details: [M+NH4]+; instrument: DT; single field

Row | SMILES | collision cross section (N2)
1 | CCCCC/C=C\C/C=C\C/C=C\CCCCCCCCC(=O)O[C@@H](CO)COC(=O)CCCCCCCCCCCCC [DG(36:3)] | 261.08 Å²
2 | CCCCC/C=C\C/C=C\C/C=C\C/C=C\CCCC(=O)O[C@@H](CO)COC(=O)CCCC/C=C\C/C=C\C/C=C\CCCCC [DG(38:7)] | 259.31 Å²

Continued, values first:

Row | collision cross section (N2) | SMILES
3 | 249.72 Å² | CCCCC/C=C\C/C=C\CCCCCCCC(=O)O[C@@H](CO)COC(=O)CCCCCCCCCCCC [DG(31:2)]
4 | 255.8 Å² | CCCCCCCC/C=C\CCCCCCCCCC(=O)O[C@@H](CO)COC(=O)CCCCCCCCCCC [DG(32:1)]
5 | 257.21 Å² | CCCCC/C=C\C/C=C\C/C=C\CCCCC(=O)OC[C@H](CO)OC(=O)CCCCCCC/C=C\CCCCCCCC [DG(36:4)]
6 | 254.91 Å² | CCCC/C=C\CCCCCCCC(=O)OC[C@H](CO)OC(=O)CCCCC/C=C\C/C=C\C/C=C\C/C=C\CCCCC [DG(36:5)]
7 | 266.74 Å² | CC/C=C\C/C=C\C/C=C\C/C=C\C/C=C\CCCCCC(=O)O[C@@H](CO)COC(=O)CCCC/C=C\C/C=C\C/C=C\CCCCC [DG(40:8)]

details: [M+Na]+; instrument: DT; stepped-field

Row | collision cross section (N2) | SMILES
8 | 164.17 Å² | c1ccc2[nH]c(-c3cscn3)nc2c1 [Thiabendazole]

details: [M+H]+; instrument: TW

Row | SMILES | collision cross section (N2)
9 | CCS(=O)(=O)CCSP(=O)(OC)OC [Demeton-S-methyl- sulfone] | 143.66 Å²
10 | CC1COC(Cn2cncn2)(c2ccc(Oc3ccc(Cl)cc3)cc2Cl)O1 (stereo not drawn) [Difenoconazole] | 198.48 Å²
11 | C=C1C[C@@]23CC[C@H]4[C@@](C)(CCC[C@@]4(C)C(=O)O[C@@H]4O[C@H](CO)[C@@H](O)[C@H](O)[C@H]4O)[C@@H]2CC[C@]1(O[C@@H]1O[C@H](CO)[C@@H](O)[C@H](O)[C@H]1O[C@@H]1O[C@@H](C)[C@H](O)[C@@H](O)[C@H]1O)C3 [Dulcoside A] | 270.75 Å²
12 | CSC1=N[C@@](C)(c2ccccc2)C(=O)N1Nc1ccccc1 [Fenamidone] | 171.15 Å²
13 | CC1(C(=O)Nc2ccc(O)c(Cl)c2Cl)CCCCC1 [Fenhexamid] | 164.82 Å²
14 | CC(Cc1ccc(C(C)(C)C)cc1)CN1CCCCC1 (stereo not drawn) [Fenpropidin] | 166.39 Å²
15 | O=C(NC(=O)c1c(F)cccc1F)Nc1ccc(Oc2ccc(C(F)(F)F)cc2Cl)cc1F [Flufenoxuron] | 204.46 Å²
16 | OC(Cn1cncn1)(c1ccc(F)cc1)c1ccccc1F (stereo not drawn) [Flutriafol] | 163.97 Å²
17 | CNC(=O)Oc1cccc(N=CN(C)C)c1 [Formetanate] | 153.76 Å²
18 | CCOCCOC(=O)C(C)Oc1ccc(Oc2ncc(C(F)(F)F)cc2Cl)cc1 (stereo not drawn) [Haloxyfop-2-ethoxyethyl] | 193.53 Å²
19 | O=C(NC(=O)c1c(F)cccc1F)Nc1cc(Cl)c(OC(F)(F)C(F)F)c(Cl)c1 [Hexaflumuron] | 188.22 Å²
20 | COC(=O)N(C(=O)N1CO[C@@]2(C(=O)OC)Cc3cc(Cl)ccc3C2=N1)c1ccc(OC(F)(F)F)cc1 [Indoxacarb] | 207.03 Å²
21 | CC(C)c1ccc(NC(=O)N(C)C)cc1 [Isoproturon] | 150.75 Å²
22 | CCC(C)(CC)c1cc(NC(=O)c2c(OC)cccc2OC)on1 [Isoxaben] | 184.93 Å²
23 | CC(C(=O)O)c1cccc(C(=O)c2ccccc2)c1 (stereo not drawn) [Ketoprofen] | 155.4 Å²
24 | O=C(NC(=O)c1c(F)cccc1F)Nc1cc(Cl)c(OC(F)(F)C(F)C(F)(F)F)cc1Cl (stereo not drawn) [Lufenuron] | 198.53 Å²
25 | CC(C)(C)NCC(O)c1cc(Cl)c(N)c(C(F)(F)F)c1 (stereo not drawn) [Mabuterol] | 168.4 Å²
26 | C#CCOc1ccc(CCNC(=O)C(OCC#C)c2ccc(Cl)cc2)cc1OC (stereo not drawn) [Mandipropamid] | 195.15 Å²
27 | CC1(C)CCC(Cc2ccc(Cl)cc2)C1(O)Cn1cncn1 (stereo not drawn) [Metconazole] | 168.62 Å²
28 | CON(C)C(=O)Nc1ccc(Cl)cc1 [Monolinuron] | 142.9 Å²

Row | SMILES | collision cross section (N2)
29 | CC(C)Oc1cc(-n2nc(C(C)(C)C)oc2=O)c(Cl)cc1Cl [Oxadiazon] | 182.17 Å²
30 | CCn1cc(C(=O)O)c(=O)c2cc3c(cc21)OCO3 [Oxolinic acid] | 147.8 Å²
31 | CCC(NC(C)C)C(O)c1ccc(O)c2[nH]c(=O)ccc12 (stereo not drawn) [Procaterol] | 168 Å²
32 | CC(C)N(C(=O)CCl)c1ccccc1 [Propachlor] | 142.07 Å²
33 | Cc1cc(C)nc(Nc2ccccc2)n1 [Pyrimethanil] | 142.95 Å²
34 | CCOP(=S)(OCC)Oc1cnc2ccccc2n1 [Quinalphos] | 165.1 Å²
35 | C=C(C)C1Cc2c(ccc3c2OC2COc4cc(OC)c(OC)cc4C2C3=O)O1 (stereo not drawn) [Rotenone] | 195.01 Å²
36 | CC(C)(C)NCC(O)c1ccc(O)c(CO)c1 (stereo not drawn) [Salbutamol] | 158.3 Å²
37 | CCOC(=O)OC1=C(c2cc(C)ccc2C)C(=O)NC12CCC(OC)CC2 (stereo not drawn) [Spirotetramat] | 189.99 Å²
38 | C=C1C[C@@]23CC[C@H]4[C@@](C)(CCC[C@@]4(C)C(=O)O)[C@@H]2CC[C@]1(O)C3 [Steviol] | 173.38 Å²
39 | Nc1ccc(S(=O)(=O)Nc2ncccn2)cc1 [Sulfadiazine] | 148.7 Å²
40 | Cc1nnc(NS(=O)(=O)c2ccc(N)cc2)s1 [Sulfamethizole] | 152.2 Å²
41 | Cc1nn(-c2cc(NS(C)(=O)=O)c(Cl)cc2Cl)c(=O)n1C(F)F [Sulfentrazone] | 173.63 Å²
42 | CCc1nn(C)c(C(=O)NCc2ccc(C(C)(C)C)cc2)c1Cl [Tebufenpyrad] | 191.25 Å²
43 | Cc1c(Cl)cccc1Nc1ccccc1C(=O)O [Tolfenamic acid] | 153.7 Å²
44 | Cc1ccc(C(=O)c2ccc(CC(=O)O)n2C)cc1 [Tolmetin] | 156.7 Å²
45 | COP(=O)(OC)C(O)C(Cl)(Cl)Cl (stereo not drawn) [Trichlorfon] | 136.12 Å²
46 | O=C(NC(=O)c1ccccc1Cl)Nc1ccc(OC(F)(F)F)cc1 [Triflumuron] | 169.88 Å²
47 | CC1(C)CC/C(=C\c2ccc(Cl)cc2)C1(O)Cn1cncn1 (stereo not drawn) [Triticonazole] | 179.18 Å²

Second part, the compound after the results:

Row | collision cross section (N2) | SMILES
48 | 184 Å² | C[C@]12CCC(=O)C=C1CC[C@@H]1[C@@H]2C(=O)C[C@@]2(C)[C@H]1CC[C@]2(O)C(=O)CO [Cortisone]
49 | 199.75 Å² | CC(C)c1cc(Oc2ccccc2)cc(C(C)C)c1NC(=S)NC(C)(C)C [Diafenthiuron]
50 | 116.4 Å² | Cc1ncc([N+](=O)[O-])n1C [Dimetridazole]
51 | 194.8 Å² | CCCCOC(=O)[C@@H](C)Oc1ccc(Oc2ccc(C(F)(F)F)cn2)cc1 [Fluazafop-P-butyl]
52 | 147.6 Å² | CC1CCc2cc(F)cc3c(=O)c(C(=O)O)cn1c23 (stereo not drawn) [Flumequine]
53 | 193.2 Å² | C[C@@H]1C[C@H]2[C@@H]3C[C@H](F)C4=CC(=O)C=C[C@]4(C)[C@@]3(F)[C@@H](O)C[C@]2(C)[C@@]1(O)C(=O)CO [Flumethasone]
54 | 137.2 Å² | Oc1ccc2nc(-c3cscn3)[nH]c2c1 [Hydroxythiabendazole]
55 | 201.8 Å² | CCC[C@@H]1C[C@@H](C(=O)N[C@@H]([C@H]2O[C@H](SC)[C@H](O)[C@@H](O)[C@H]2O)[C@@H](C)O)N(C)C1 [Lincomycin]
56 | 174.9 Å² | Cc1cnc(/N=C(\O)C2=C(O)c3ccccc3S(=O)(=O)N2C)s1 [Meloxicam]
57 | 149.7 Å² | Cc1ccsc1/C=C/C1=NCCCN1C [Morantel]
58 | 141.4 Å² | CCn1cc(C(=O)O)c(=O)c2ccc(C)nc21 [Nalidixic acid]
59 | 202.3 Å² | CN(C)[C@@H]1C(O)=C(C(N)=O)C(=O)[C@@]2(O)C(O)=C3C(=O)c4c(O)cccc4[C@@](C)(O)[C@H]3[C@H](O)[C@@H]12 [Oxytetracycline]
60 | 182.8 Å² | CCC(=O)c1ccc2c(c1)N(CCCN(C)C)c1ccccc1S2 [Propionylpromazine]
61 | 169.35 Å² | Ic2ccc1\N=C(\OCCC)N(C(=O)c1c2)CCC [Proquinazid]
62 | 168.9 Å² | CC(CCc1ccc(O)cc1)NCC(O)c1ccc(O)cc1 (stereo not drawn) [Ractopamine]
63 | 165.8 Å² | C[C@H](NCCc1ccc(O)cc1)[C@H](O)c1ccc(O)cc1 [Ritodrine]
64 | 131.6 Å² | Cn1c([N+](=O)[O-])cnc1COC(N)=O [Ronidazole]
65 | 156.9 Å² | Nc1ccc(S(=O)(=O)Nc2ccc(Cl)nn2)cc1 [Sulfachloropyridazine]
66 | 159.7 Å² | Cc1cc(C)nc(NS(=O)(=O)c2ccc(N)cc2)n1 [Sulfadimidine]
67 | 166.6 Å² | COc1ncnc(NS(=O)(=O)c2ccc(N)cc2)c1OC [Sulfadoxine]
68 | 157.4 Å² | Cc1noc(NS(=O)(=O)c2ccc(N)cc2)c1C [Sulfisoxazole]
69 | 197.3 Å² | CN(C)[C@@H]1C(O)=C(C(N)=O)C(=O)[C@@]2(O)C(O)=C3C(=O)c4c(O)cccc4[C@@](C)(O)[C@H]3C[C@@H]12 [Tetracycline]
70 | 136.19 Å² | c1ccc2[nH]c(-c3cscn3)nc2c1 [Thiabendazole]
71 | 332.4 Å² | CC[C@H]1OC(=O)C[C@@H](O)[C@H](C)[C@@H](O[C@@H]2O[C@H](C)[C@@H](O[C@H]3C[C@@](C)(O)[C@@H](O)[C@H](C)O3)[C@H](N(C)C)[C@H]2O)[C@@H](CC=O)C[C@@H](C)C(=O)/C=C/C(C)=C/[C@@H]1CO[C@@H]1O[C@H](C)[C@@H](O)[C@@H](OC)[C@H]1OC [Tylosine]

details: [M+H]+; instrument: DT; single field, calibrated with Agilent tune mix (Agilent)

Row | collision cross section (N2) | SMILES
72 | 188.6 Å² | C[C@]12CCC(=O)C=C1CC[C@@H]1[C@@H]2C(=O)C[C@@]2(C)[C@H]1CC[C@]2(O)C(=O)CO [Cortisone]

same assay, conditions: [M-H2O-H]-; instrument: DT; single field, calibrated with Agilent tune mix (Agilent)

Row | collision cross section (N2) | SMILES
73 | 180.07 Å² | C[C@]12CCC(=O)C=C1CC[C@@H]1[C@@H]2C(=O)C[C@@]2(C)[C@H]1CC[C@]2(O)C(=O)CO [Cortisone]
